{"source": "PubChem BioAssay AID1259407", "about": "(Chemical Carcinogenesis Research Information System (CCRIS), 2018)", "test_system": "CCRIS mutagenicity, Ames/micronucleus/aberration tests", "experiment": "CCRIS mutagenicity studies", "key": {"[1]": {"conditions": "Test System: AMES SALMONELLA TYPHIMURIUM, Strain/Indicator: TA98, Metabolic Activation: NONE, Method: PREINCUBATION"}, "[2]": {"conditions": "Test System: AMES SALMONELLA TYPHIMURIUM, Strain/Indicator: TA98, Metabolic Activation: NONE, Method: STANDARD PLATE"}, "[3]": {"conditions": "Test System: AMES SALMONELLA TYPHIMURIUM, Strain/Indicator: TA100, Metabolic Activation: NONE, Method: PREINCUBATION"}, "[4]": {"conditions": "Test System: AMES SALMONELLA TYPHIMURIUM, Strain/Indicator: TA1537, Metabolic Activation: NONE, Method: PREINCUBATION"}, "[5]": {"conditions": "Test System: AMES SALMONELLA TYPHIMURIUM, Strain/Indicator: TA100, Metabolic Activation: NONE, Method: STANDARD PLATE"}, "[6]": {"conditions": "Test System: AMES SALMONELLA TYPHIMURIUM, Strain/Indicator: TA98, Metabolic Activation: RAT, LIVER, S-9, AROCLOR 1254, Method: STANDARD PLATE"}, "[7]": {"conditions": "Test System: AMES SALMONELLA TYPHIMURIUM, Strain/Indicator: TA100, Metabolic Activation: RAT, LIVER, S-9, AROCLOR 1254, Method: STANDARD PLATE"}}, "note": "Activity calls are given as the source filed them. How the calls were made is not given here.", "data": [{"compound": "COc1cc(NC(C)CCCN)c2ncccc2c1", "note": "(centres undefined)", "values": [{"measurement": "mutagenic call", "setting": "Test System: AMES SALMONELLA TYPHIMURIUM, Strain/Indicator: TA97, Metabolic Activation: NONE, Method: PREINCUBATION", "value": "active; positive"}, {"measurement": "mutagenic call", "setting": "Test System: AMES SALMONELLA TYPHIMURIUM, Strain/Indicator: TA97, Metabolic Activation: RAT, LIVER, S-9, PHENOBARBITAL AND BETA-NAPHTHOFLAVONE, Method: PREINCUBATION", "value": "active; positive"}, {"measurement": "mutagenic call", "setting": "Test System: AMES SALMONELLA TYPHIMURIUM, Strain/Indicator: TA97A, Metabolic Activation: NONE, Method: STANDARD PLATE", "value": "inactive; negative"}, {"measurement": "mutagenic call", "setting": "Test System: AMES SALMONELLA TYPHIMURIUM, Strain/Indicator: TA97A, Metabolic Activation: RAT LIVER S-9, PHENOBARBITAL, Method: STANDARD PLATE", "value": "inactive; negative"}, {"measurement": "mutagenic call", "setting": "[1]", "value": "inactive; negative"}, {"measurement": "mutagenic call", "setting": "[2]", "value": "active; positive"}, {"measurement": "mutagenic call", "setting": "Test System: AMES SALMONELLA TYPHIMURIUM, Strain/Indicator: TA98, Metabolic Activation: RAT, LIVER, S-9, AROCLOR 1254 OR PHENOBARBITOL, Method: STANDARD PLATE", "value": "active; positive"}, {"measurement": "mutagenic call", "setting": "Test System: AMES SALMONELLA TYPHIMURIUM, Strain/Indicator: TA98, Metabolic Activation: RAT, LIVER, S-9, PHENOBARBITAL AND BETA-NAPHTHOFLAVONE, Method: PREINCUBATION", "value": "inactive; negative"}, {"measurement": "mutagenic call", "setting": "Test System: AMES SALMONELLA TYPHIMURIUM, Strain/Indicator: TA98, Metabolic Activation: RAT, LIVER, S-9, Method: PREINCUBATION", "value": "inactive; negative"}, {"measurement": "mutagenic call", "setting": "[3]", "value": "inactive; negative"}, {"measurement": "mutagenic call", "setting": "Test System: AMES SALMONELLA TYPHIMURIUM, Strain/Indicator: TA100, Metabolic Activation: RAT LIVER S-9, PHENOBARBITAL, Method: STANDARD PLATE", "value": "inactive; negative"}, {"measurement": "mutagenic call", "setting": "Test System: AMES SALMONELLA TYPHIMURIUM, Strain/Indicator: TA100, Metabolic Activation: RAT, LIVER, S-9, AROCLOR 1254 OR PHENOBARBITOL, Method: STANDARD PLATE", "value": "active; positive"}, {"measurement": "mutagenic call", "setting": "Test System: AMES SALMONELLA TYPHIMURIUM, Strain/Indicator: TA100, Metabolic Activation: RAT, LIVER, S-9, PHENOBARBITAL AND BETA-NAPHTHOFLAVONE, Method: PREINCUBATION", "value": "inactive; negative"}, {"measurement": "mutagenic call", "setting": "Test System: AMES SALMONELLA TYPHIMURIUM, Strain/Indicator: TA100, Metabolic Activation: RAT, LIVER, S-9, Method: PREINCUBATION", "value": "inactive; negative"}, {"measurement": "mutagenic call", "setting": "Test System: AMES SALMONELLA TYPHIMURIUM, Strain/Indicator: TA102, Metabolic Activation: NONE, Method: PREINCUBATION", "value": "inactive; negative"}, {"measurement": "mutagenic call", "setting": "Test System: AMES SALMONELLA TYPHIMURIUM, Strain/Indicator: TA102, Metabolic Activation: NONE, Method: STANDARD PLATE", "value": "inactive; negative"}, {"measurement": "mutagenic call", "setting": "Test System: AMES SALMONELLA TYPHIMURIUM, Strain/Indicator: TA102, Metabolic Activation: RAT LIVER S-9, PHENOBARBITAL, Method: STANDARD PLATE", "value": "inactive; negative"}, {"measurement": "mutagenic call", "setting": "Test System: AMES SALMONELLA TYPHIMURIUM, Strain/Indicator: TA102, Metabolic Activation: RAT, LIVER, S-9, PHENOBARBITAL AND BETA-NAPHTHOFLAVONE, Method: PREINCUBATION", "value": "inactive; negative"}, {"measurement": "mutagenic call", "setting": "Test System: AMES SALMONELLA TYPHIMURIUM, Strain/Indicator: TA104, Metabolic Activation: NONE, Method: STANDARD PLATE", "value": "inactive; negative"}, {"measurement": "mutagenic call", "setting": "Test System: AMES SALMONELLA TYPHIMURIUM, Strain/Indicator: TA104, Metabolic Activation: RAT LIVER S-9, PHENOBARBITAL, Method: STANDARD PLATE", "value": "inactive; negative"}, {"measurement": "mutagenic call", "setting": "Test System: AMES SALMONELLA TYPHIMURIUM, Strain/Indicator: TA1535, Metabolic Activation: NONE, Method: STANDARD PLATE", "value": "inactive; negative"}, {"measurement": "mutagenic call", "setting": "Test System: AMES SALMONELLA TYPHIMURIUM, Strain/Indicator: TA1535, Metabolic Activation: RAT, LIVER, S-9, AROCLOR 1254 OR PHENOBARBITOL, Method: STANDARD PLATE", "value": "inactive; negative"}, {"measurement": "mutagenic call", "setting": "[4]", "value": "active; positive"}, {"measurement": "mutagenic call", "setting": "Test System: AMES SALMONELLA TYPHIMURIUM, Strain/Indicator: TA1537, Metabolic Activation: NONE, Method: STANDARD PLATE", "value": "inactive; negative"}, {"measurement": "mutagenic call", "setting": "Test System: AMES SALMONELLA TYPHIMURIUM, Strain/Indicator: TA1537, Metabolic Activation: RAT, LIVER, S-9, AROCLOR 1254, Method: PREINCUBATION", "value": "active; positive"}, {"measurement": "mutagenic call", "setting": "Test System: AMES SALMONELLA TYPHIMURIUM, Strain/Indicator: TA1537, Metabolic Activation: RAT, LIVER, S-9, AROCLOR 1254, Method: STANDARD PLATE", "value": "active; positive"}, {"measurement": "mutagenic call", "setting": "Test System: AMES SALMONELLA TYPHIMURIUM, Strain/Indicator: TA1537, Metabolic Activation: RAT, LIVER, S-9, AROCLOR 1254 OR PHENOBARBITOL, Method: STANDARD PLATE", "value": "inactive; negative"}, {"measurement": "mutagenic call", "setting": "Test System: AMES SALMONELLA TYPHIMURIUM, Strain/Indicator: TA1538, Metabolic Activation: NONE, Method: STANDARD PLATE", "value": "inactive; negative"}, {"measurement": "mutagenic call", "setting": "Test System: AMES SALMONELLA TYPHIMURIUM, Strain/Indicator: TA1538, Metabolic Activation: RAT, LIVER, S-9, AROCLOR 1254 OR PHENOBARBITOL, Method: STANDARD PLATE", "value": "inactive; negative"}, {"measurement": "mutagenic call", "setting": "Test System: E.COLI, Strain/Indicator: WP2UVRA/PKM101, Metabolic Activation: NONE, Method: PREINCUBATION", "value": "inactive; negative"}, {"measurement": "mutagenic call", "setting": "Test System: E.COLI, Strain/Indicator: WP2UVRA/PKM101, Metabolic Activation: RAT LIVER S-9, PHENOBARBITAL AND 5,6-BENZOFLAVONE, Method: PREINCUBATION", "value": "inactive; negative"}]}, {"compound": "c1ccc(COC[C@@H]2CO2)cc1", "values": [{"measurement": "mutagenic call", "setting": "[5]", "value": "active; positive"}]}, {"compound": "O=NN1CSCC1C(=O)O", "note": "(centres undefined)", "values": [{"measurement": "mutagenic call", "setting": "[1]", "value": "inactive; negative"}, {"measurement": "mutagenic call", "setting": "[2]", "value": "inactive; negative"}, {"measurement": "mutagenic call", "setting": "Test System: AMES SALMONELLA TYPHIMURIUM, Strain/Indicator: TA98, Metabolic Activation: RAT, LIVER, S-9, AROCLOR 1254, Method: PREINCUBATION", "value": "inactive; negative"}, {"measurement": "mutagenic call", "setting": "[6]", "value": "inactive; negative"}, {"measurement": "mutagenic call", "setting": "[3]", "value": "inactive; negative"}, {"measurement": "mutagenic call", "setting": "[5]", "value": "inactive; negative"}, {"measurement": "mutagenic call", "setting": "Test System: AMES SALMONELLA TYPHIMURIUM, Strain/Indicator: TA100, Metabolic Activation: RAT, LIVER, S-9, AROCLOR 1254, Method: PREINCUBATION", "value": "inactive; negative"}, {"measurement": "mutagenic call", "setting": "[7]", "value": "inactive; negative"}]}, {"compound": "Nn1c2ccccc2c2cnccc21", "values": [{"measurement": "mutagenic call", "setting": "[4]", "value": "active; positive"}, {"measurement": "mutagenic call", "setting": "Test System: AMES SALMONELLA TYPHIMURIUM, Strain/Indicator: TA1537, Metabolic Activation: RAT, LIVER, S-9, PHENOBARBITAL, Method: PREINCUBATION", "value": "inactive; negative"}]}, {"compound": "Cc1ccc2cc(C)c3c4c(ccc3c2c1)[C@H](O)[C@@H](O)[C@H]1O[C@@H]41", "values": [{"measurement": "mutagenic call", "setting": "[5]", "value": "active; positive"}]}, {"compound": "O=c1cc2ccc3cccc4ccc([nH]1)c2c34", "values": [{"measurement": "mutagenic call", "setting": "[2]", "value": "active; positive"}, {"measurement": "mutagenic call", "setting": "[6]", "value": "active; positive"}, {"measurement": "mutagenic call", "setting": "[5]", "value": "inactive; negative"}, {"measurement": "mutagenic call", "setting": "[7]", "value": "active; positive"}]}, {"compound": "Cc1cc2ccccc2cc1[N+](=O)[O-]", "values": [{"measurement": "mutagenic call", "setting": "[1]", "value": "inactive; negative"}]}, {"compound": "O=[N+]([O-])c1cc(-c2ccccc2)ccc1O", "values": [{"measurement": "mutagenic call", "setting": "[1]", "value": "inactive; negative"}]}]}
